The values that follow come from US8741957B2, “Alpha-aminoamide derivatives useful in the treatment of cognitive disorders” (priority 2006, dated 2014).

The structures appear in SMILES notation.

The conditions of data set [1]: in vivo; cited from earlier work.
The conditions of data set [2]: literature reports; cited from earlier work.
For data set [3], the system named is early-mild Parkinson's Disease. The note with it: after eight weeks (end of study); cited from earlier work.
For another data set, the system named is mild PD patients. The note with it: in comparison to levodopa; cited from earlier work.
The subject of data set [4] is early and moderate-to-advanced PD patients. Conditions: 1 mg dose once daily; cited from earlier work.
The test system of data set [5] is patients with PD-related Dementia (PDD). Conditions: cited from earlier work.
Data set [6] has as its system non demented patients with early PD. Briefly: Cogtest cognitive battery in double blind Phase III study, safinamide added to a dopamine agonist. It is filed as in vivo, human. From the text: Cogtest® (Computerized Cognitive Test Battery for Clinical Trials) is designed to provide with the highest quality computerised cognitive tests for use in clinical trials. All cognitive tests in the Cogtest® battery have been developed by academic neuropsychologists and clinical trials specialists. This ensures that the most recent developments in cognitive neuroscience, including neurophysiological, functioning neuroimaging and pharmacogenic evidence are incorporated into the Cogtest® library of procedures and into pharmaceutical clinical trials.
The Cogtest PD battery has been prepared, based on a review of the available tests in the Cogtest library and selection of those tests that would most usefully comprise a battery suitable for Parkinson's Disease. However the same tasks are used in other pathological conditions for testing the two main domains of cognition, reaction time and power.
The battery takes from 20-30 minutes to administer, and is applicable across different cultures and countries. The following tests were included in the battery:
The Auditory Number Sequencing task is a test of working memory and executive function. The participant will be presented with clusters of numbers (e.g. 936) of increasing length (from 2 digits to a maximum of 8 digits). They will be asked to tell the tester the numbers in order, from lowest to highest. […]
This test is similar to the paper-and-pencil ‘cancellation’ tests or the cross-out’ subtest of the WAIS-III, where subjects are required to crossout target stimuli embedded among distracters. […] The variables measured are: Total Experiment Time (from the end of the ‘Get ready’ screen to the end of the last response, in msec), Total Correct responses, Total Perseverative Errors (erroneous pressing of the shape that was the target of the last set, but is not for this set), Strategic efficiency variable (the cumulative distance of territory transversed, i.e., between the location of correct presses on screen for each set) according to literature (Weintraub, S., & Mesulam, M. M. (1987). Archives of Neurology 44 621-625). […]

The test system is the same in data set [7]. In words: UPDRS motor scores in six month double blind clinical trial. The note with it: safinamide associated to a dopamine agonist, compared to the group treated with the DA alone. It is filed as in vivo, human. The protocol: A double blind Phase III study, placebo controlled, parallel-group, randomized, multinational was conducted comparing 2 oral doses of Safinamide versus placebo. The placebo group was constituted by patients treated with a stable dose of a dopamine agonist. The dopamine agonist could have been any of the ones used in clinical practice, according to clinical procedures in the different countries. 269 patients (˜90 per arm), were enrolled and treated for six months. Primary efficacy variable was UPDRS III. All the randomized patients were tested for cognitive impairment with Cogtest at Screening, Baseline, week 12 and week 24 (or early discontinuation).

The target in another data set is T1, MAO-B (Homo sapiens, UniProt P27338).
T1 sequence (P27338 1-520): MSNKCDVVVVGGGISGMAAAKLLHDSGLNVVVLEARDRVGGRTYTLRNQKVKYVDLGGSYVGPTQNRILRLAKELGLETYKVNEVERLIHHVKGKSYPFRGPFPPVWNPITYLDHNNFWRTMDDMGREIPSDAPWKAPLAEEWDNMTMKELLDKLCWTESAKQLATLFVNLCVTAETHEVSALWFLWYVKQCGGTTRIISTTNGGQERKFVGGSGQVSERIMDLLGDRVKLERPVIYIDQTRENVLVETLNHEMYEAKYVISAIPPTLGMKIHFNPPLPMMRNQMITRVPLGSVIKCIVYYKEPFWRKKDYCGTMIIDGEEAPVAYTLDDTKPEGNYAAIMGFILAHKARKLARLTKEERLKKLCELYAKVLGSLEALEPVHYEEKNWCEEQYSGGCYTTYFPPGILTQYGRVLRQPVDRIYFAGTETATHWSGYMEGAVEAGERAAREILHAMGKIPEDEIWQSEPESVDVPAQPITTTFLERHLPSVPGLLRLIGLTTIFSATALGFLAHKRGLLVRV
Conditions: cited from earlier work.

For another data set, the target named is T2, MAO-A (Homo sapiens, UniProt P21397).
T2 sequence (P21397 1-527): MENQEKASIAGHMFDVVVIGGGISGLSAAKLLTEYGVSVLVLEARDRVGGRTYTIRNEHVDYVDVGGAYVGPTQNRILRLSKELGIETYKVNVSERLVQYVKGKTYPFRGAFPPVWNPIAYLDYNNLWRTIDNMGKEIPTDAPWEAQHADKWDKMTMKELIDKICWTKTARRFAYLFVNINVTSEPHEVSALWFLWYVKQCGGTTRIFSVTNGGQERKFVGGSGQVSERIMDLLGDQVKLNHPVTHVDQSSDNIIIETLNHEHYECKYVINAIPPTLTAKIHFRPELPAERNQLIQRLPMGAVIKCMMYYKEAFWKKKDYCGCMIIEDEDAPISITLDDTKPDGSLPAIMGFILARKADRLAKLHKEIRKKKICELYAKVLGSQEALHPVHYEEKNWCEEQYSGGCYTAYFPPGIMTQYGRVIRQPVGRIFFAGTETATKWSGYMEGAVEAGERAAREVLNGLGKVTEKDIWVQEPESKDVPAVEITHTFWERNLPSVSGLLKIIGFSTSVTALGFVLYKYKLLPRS
The note with it: cited from earlier work.

The subject of another data set is glutamate receptors. The note with it: cited from earlier work.
In the next data set the test system is glutamate release. The note with it: in condition of pathological glutamate overflow; cited from earlier work.
The next data set deals with cholinesterase. The note with it: cited from earlier work.
Another data set relates to normal rats. Conditions: safinamide per se; cited from earlier work.
For the next data set, the system named is animal models. The note with it: cited from earlier work.
For another data set, the system named is PD patients. Conditions: after 3 month treatment; cited from earlier work.

`CN1CCc2cccc3c2[C@H]1Cc1ccc(O)c(O)c1-3` [apomorphine]: the “reaction times in visual-spatial working memory (WM)” value in data set [1] is reported as “negative effect”.

With `N[C@@H](Cc1ccc(O)c(O)c1)C(=O)O` [levodopa], the effect on cognition entry in data set [2] is given as “no effect on cognition, or even impairment”.

For `CCCN1C[C@H](CSC)C[C@@H]2c3cccc4[nH]cc(c34)C[C@H]21` [pergolide], in [3], the cognitive test scores entry is recorded as “without showing amelioration”.

Turning to `CCCN[C@H]1CCc2nc(N)sc2C1` [pramipexole], in the data set with mild PD patients, the “short term verbal memory and attentional-executive functions” value is “impaired”; the verbal fluency entry is on record as “slightly but significantly worsened”.

As for `C#CCN[C@@H]1CCc2ccccc21` [rasagiline], in data set [4], the “occurrence of cognitive and behavioural adverse events” value is “without significantly increasing”; the “symptoms of PD, including motor fluctuations” value is reported as “improved”.

In the case of `CCN(C)C(=O)Oc1cccc([C@H](C)N(C)C)c1` [rivastigmine], the “subjective worsening of tremor reported” value in data set [5] (in vivo) is listed as 1.7%. Also, in data set [5] (most commonly due to nausea), the “patients dropped out due to adverse events” value was 17%. Also, the “response on primary (ADAS-Cog, Clinical Global Impression of Change) and all secondary outcome measures” value in data set [5] (versus placebo, differences were moderate) was “responded better”.

For `C[C@H](NCc1ccc(OCc2cccc(F)c2)cc1)C(N)=O` [safinamide, (S)-(+)-2-[4-(3-fluorobenzyloxy)-benzylamino]-propanamide], the “several cognitive variables (Cogtest), change from baseline” value in data set [6] (both groups, low and high dose of safinamide, with a stable dose of a DA, three and six months evaluation times, most marked for executive function) is given as “significant improvement from baseline”. The “Strategic Target Detection test, observed score (Z-score)” value in data set [6] (both treated groups (low and high dose of safinamide), from baseline to both three and six months) is reported as “significant improvement”. In addition, the “cognition compared with DA alone (control group) and with pretreatment” value in data set [6] (safinamide associated to a dopamine agonist, check at three and six months after start of treatment) is “ameliorate cognitive worsening observed in controls and/or improve cognition as compared to pretreatment”. For the same compound, the “UPDRS scores (motor symptoms)” value in [7] is “significantly ameliorate”. Besides, on MAO-B, the MAO-B inhibition result is given as “selective MAO-B inhibitor”. The “activity on MAO-A” value on MAO-A is “devoid of activity”. In addition, in the data set with glutamate receptors, the “affinity for any of the glutamate receptors” value is reported as “no affinity”. Besides, the glutamate release inhibition result in the data set with glutamate release is recorded as “glutamate release inhibitor”. For the same compound, the cholinesterase inhibition result with cholinesterase is on record as “not cholinesterase inhibitors”. The “cognition in the rat passive avoidance test” value in the data set on normal rats is “does not ameliorate cognition”. For the same compound, in the data set on animal models, the “long term neuroprotective effects” value was “demonstrated”. Besides, the UPDRS scores entry in the data set on PD patients is recorded as “significantly ameliorated”.
